According to patent publication US7662853B2, “Monoacetyldiacylglycerol derivative for the treatment of sepsis” (priority 2004, dated 2010):

Tests used:
T-cells [1] = experiment: T-cell proliferation (3H-thymidine incorporation, SI); type: cell-based, C57BL/6 mice; conditions: 7th day
Source text: Splenocytes were collected from C57BL/6 mice (provided from Asan Institute for Life Sciences Animal Lab., Seoul, Korea) spleens. Then, single cell suspensions were obtained by repeated aspiration and flushing. Red blood cells were removed using ammonium chloride and then passed through nylon wool to remove debris and clumps. T-cells were purified using magnetic bead (MACS bead, Miltenyi Biotec, bergich gladbach, Germany) containing anti-goat IgG MACS bead, Miltenyi Biotec, bergich gladbach, Germany) or anti-mouse CD4 (MACS bead, Miltenyi Biotec, bergich gladbach, Germany) or anti-mouse CD8 antibody (MACS bead, Miltenyi Biotec, bergich gladbach, Germany) (Turner and Dockrell (1996) Immunology, 87: 339-342).
T cell suspensions were suspended in Isocove's modified Dulbecco's medium (IMDM, Gibco, Grand Island, N.Y.) supplemented with 10% fetal bovine serum (referred as ‘FBS’ hereinafter) (Gibco, Grand Island, N.Y.). […] On the 6th day, cells were incubated with 1 μCi ^3H-thymidine/well for 24 hours. On the 7th day, the cells were harvested and the […] (referred as ‘SI’ hereinafter) was calculated by the following Mathematical Formula 1. SI=^3H-thymidine absorbed by wells of experimental group (CPM in sample)/^3H-thymidine absorbed by wells of control group (CPM in control) [Mathematical Formula 1]

T-cells [2] = experiment: Measurement of cytokine by Bio-plex in activated T-cells; type: cell-based; conditions: anti-CD3, anti-CD28 treated T-cells, 0.1, 1 μg/ml, 5 days, vs control
Protocol: Bio-plex can measure huge amount of cytokine at a time in a well. Thus, Bio-plex kit was used to quantify 8 kinds of cytokines of Th1/Th2 channels, which are secreted when T-cells are activated. Sterilized 24-well tissue culture plate (Nunc, Denmark) was treated with anti-CD3 and anti-CD28. Then, the plate was inoculated with T-cells by 2×10^6 cells/ml. […] On the 5th day, culture solutions at each different stage were recovered, followed by centrifugation. Supernatants were obtained and cytokine secreted therein was quantified by using Bio-plex kit according to the manufacturer's instruction (Bio-rad).

KIBG-5 cells = experiment: Biliary cancer model in hamster (7 treatment groups); type: in vivo, Syrian golden hamsters; conditions: Compound 3 25 mg/kg/day P.O.
Protocol: Six week old female Syrian golden hamsters (Harlan, Indianapolis, […], USA) were housed in specific pathogen free unit. 5×10^5 KIBG-5 cells (Molecular therapy, Vol. 3, No. 4, pp 431-437) suspended in 100 μl of RPMI 1640 serum-free medium were intravenously injected via femoral vein. And 5×10^5 KIBG-5 cells suspended in 100 μl of RPMI 1640 serum-free medium were subcutaneously injected to the flank of the hamsters. Hamsters injected KIBG-5 were divided into following 7 groups;
1) Control group treated with RPMI medium,
2) Experimental group treated with non-modified BMSC cells (2.5×10^6) (Leukemia & Lymphoma, Vol. 44, No. 11, pp 1973-1978),
3) Experimental group treated with BMSC cells modified with Ad/ΔE1 50 MOI (Leukemia & Lymphoma, Vol. 44, No. 11, pp 1973-1978),
4) Experimental group treated with DC+ tumor lysate (5×10^6),
5) Experimental group treated with BMSC cells modified with Ad/hIL-2 50 MOI (Leukemia & Lymphoma, Vol. 44, No. 11, pp 1973-1978),
One week after the injection of cancer cells to hamsters (BMSC treated group), 2.5×10^6 of BMSC cells were injected once again to each hamster. In the case of DC+tumor lysate treated group, 5×10^6 of DC cells and tumor lysate were injected to each hamster (with subcutaneous injection or intravenous injection) at the first, second, third, forth, sixth, eighth week, followed by observation for 12 weeks.

KIGB-5 cells = experiment: Biliary cancer model in hamster, Compound 3 dose groups; type: in vivo, Syrian golden hamsters; conditions: for gross findings, tumor: 4th week
Protocol: In another hand, six week old female Syrian golden hamsters were housed in specific pathogen free unit. KIGB-5 cells (5×10^5) suspended in 100 μl of RPMI 1640 serum-free medium were intravenously injected via femoral vein. […] Animals of each group were sacrificed at 4, 8, 12 weeks for pathological examination. […] At 8th week, control group observed multiple metastatic lesions in both lungs.

B16F10 cells = experiment: Melanoma model in mice; type: in vivo, C57BL/6 mice; conditions: Compound 3 50 mg/kg/day P.O.
Protocol: 6 week female C57BL/6 mice (provided from Asan Institute for Life Sciences Animal Lab., Seoul, Korea) were housed in specific pathogen free unit.
B16F10 cells (2×10^4) suspended in 100 μl of RPMI 1640 serum-free medium were intravenously injected via tail vein. One week before tumor cell injection, the following 3 groups were treated.
2) Dendritic cells (DC) (5×10^5 cells/day)+tumor lysate treated group
In the case of DC+tumor lysate treated group, one week before melanoma injection, 5×10^5 DC cells mixed with tumor lysate were injected to the abdominal cavity every 1 weeks. […] As a result, gross findings at 4th week control group observed multiple metastatic lesions in both lungs.

malignant melanoma cells = experiment: Cytotoxicity of T-cells activated by Compound 3 to malignant melanoma cells; type: cell-based; conditions: ratio of T-cells activated by Compound 3 to melanoma cells 100:1; FIG. 16: 1 μg/ml
[3] = Toxicity test, single oral administration; type: in vivo; conditions: mouse, in vivo; ICR mice, oral, single dose, 14 days
Protocol: (§1) Control group was treated 5% ethanol solution. IRC mice, housed in SPF facility were used as test animals. […] Weight increment rate(%)={Weight of day 14−Weight of day 0}÷{Weight of day 0}×100 [Mathematical Formula 2]

ICR mice = experiment: Toxicity test, single oral administration; type: in vivo; conditions: for Number of dead mice/Number of orally administered mice: 14 days
Protocol: as §1

Structure (SMILES): CCCCC/C=C\C/C=C\CCCCCCCC(=O)OC(COC(C)=O)COC(=O)CCCCCCCCCCCCCCC (centres unmarked) [Compound 3]
- SI (T-cells [1]; 0.01 μg/ml): 1.83 ± 0.32
- SI (T-cells [1]; 0.1 μg/ml): 1.96 ± 0.18
- amounts of secreted cytokines IL-2, IL-4 and IL-5 (T-cells [2]): bigger than those in a control group
- tumor formation (KIBG-5 cells; 4 weeks after cancer cell injection): no tumor were found
- metastatic lung lesions (KIBG-5 cells; 8 weeks after cancer cell injection (i.v.)): only one minute lung lesion was found
- gross findings, tumor (KIGB-5 cells; 10 mg/kg/day P.O.): no evidence of tumor
- gross findings, tumor (KIGB-5 cells; 25 mg/kg/day P.O.): no evidence of tumor
- gross findings, tumor (KIGB-5 cells; 50 mg/kg/day P.O.): no evidence of tumor
- metastatic lung lesions (KIGB-5 cells; 8th week, 10 mg/kg/day P.O.): showed tumor in the left lung
- metastatic lung lesions with microscope (KIGB-5 cells; 8th week, 25 mg/kg/day P.O.): showed one minute lesion with microscope
- metastatic lung lesions with naked eye (KIGB-5 cells; 8th week, 25 mg/kg/day P.O.): did not show any metastatic lung lesions with naked eye
- metastatic lung lesions with naked eye (KIGB-5 cells; 8th week, 50 mg/kg/day P.O.): did not show any metastatic lung lesions with naked eye
- gross findings, metastatic lesions in the lung (B16F10 cells; 4th week after B16F10 i.v. injection): no evidence of disease in the lung
- Survival rate (B16F10 cells; observation for 6 weeks after melanoma (B16F10) injection): 90%
- cytotoxicity increased (malignant melanoma cells): 42%
- LD50 at 14 days [3]: > 2000 mg/kg
- Death rate (ICR mice; 62.5 mg/kg oral once): 12.5%
- Number of dead mice/Number of orally administered mice (ICR mice; 62.5 mg/kg oral once): 1/8
- toxicity (ICR mice; 62.5 mg/kg˜2 g/kg oral once, 14 days observation): No toxicity was seen
- Death rate (ICR mice; 125 mg/kg oral once): 30%
- Number of dead mice/Number of orally administered mice (ICR mice; 125 mg/kg oral once): 0/8
- Death rate (ICR mice; 250 mg/kg oral once): 12.5%
- Number of dead mice/Number of orally administered mice (ICR mice; 250 mg/kg oral once): 1/8
- Death rate (ICR mice; 500 mg/kg oral once): 22.2%
- Number of dead mice/Number of orally administered mice (ICR mice; 500 mg/kg oral once): 2/9
- Death rate (ICR mice; 1000 mg/kg oral once): 0%
- Number of dead mice/Number of orally administered mice (ICR mice; 1000 mg/kg oral once): 0/9
- Death rate (ICR mice; 2000 mg/kg oral once): 0%
- Number of dead mice/Number of orally administered mice (ICR mice; 2000 mg/kg oral once): 0/9
